Measured values reported in patent US8541476B2, “Compounds for treatment of malignant tumors” (The Trustees of the University of Pennsylvania, priority 2007, dated 2013).

How the values were obtained:
zebrafish (ZF) embryos = assay: Zebrafish embryo development and survival after drug plus IR; format: in vivo, Danio rerio
Description: ZF were raised in accordance with previously established protocols (McAleer, et al., 2005, J. Radiat. Oncol. Biol. Phys. 61:10-3) at the University of Pennsylvania School of Medicine. Embryos were maintained at 30° C. after transplantation procedures. The age of embryos is indicated as the hours post-fertilization (hpf) and days post-fertilization (dpf) for all experimental data shown. […] Radiat. Oncol. Biol. Phys. 61:10-3) immediately after photography at 24 hpf. […]
The radiosensitizing effects of NS-123 on human cancer cells but not normal cells prompted us to examine the potential of NS-123 in vivo. Zebra fish (ZF) (Danio rerio) embryos provide an unique vertebrate model that is ideal for the screening of therapeutic agents because of their close genetic and physiological homology to upper level vertebrates such as mammals, their rapid embryonic development, optical clarity, and suitability for investigations regarding the effects of radiation and radiosensitizers (Geiger et al., 2006, Cancer Res. 66:8172-8181; McAleer et al., 2005, Int. J. Radiat. Oncol. Biol. Phys. 61:10-13). These features allow the efficient screening of novel drugs and observation of effects on specific organs without the need for euthanization and necroscopy. The ZF embryos were pretreated for 8 hours with 5 μM NS-123 prior to 6 Gy of radiation.

U251 cells = assay: MIT assay, radiosensitizing effects of NS-160; format: cell-based, human; conditions: U251, 8 hour pretreatment, 0.2 μM, IR dose of 4 Gy
Description: The dose-dependent radiosensitizing effects of NS-160 were investigated using an 8 hour pretreatment of 0.02 μM, 0.2 μM, and 2.0 μM NS-160 in U251 cells (FIG. 9). […] Therefore, NS-160 can act as a true radiosensitizer at low μM concentrations.

CN[C@@H]1C[C@H]2O[C@@](C)([C@@H]1OC)n1c3ccccc3c3c4c(c5c6ccccc6n2c5c31)C(=O)NC4 [Staurosporine]
embryonic development and viability after IR (zebrafish (ZF) embryos; 5 μM NS-123 (1 μM staurosporine) 8 hours before 6 Gy): greatly diminished the viability and development
morphologic effects in developing ZF with IR (zebrafish (ZF) embryos; drug + IR): morphologic changes consistent with increased toxicity

N#Cc1ccc(Br)c([N+](=O)[O-])c1 [NS-160, 4-bromo-3-nitrobenzonitrile]
radiosensitization (U251 cells): Radiosensitization was evident
